Assay results taken from BindingDB's records for doi:10.1016/j.bmcl.2015.12.063 (Aristotelian University of Thessaloniki, 2016).

Assay: Inhibition of soybean lipoxygenase assessed as formation of 13-hydroperoxylinoleic acid after 7 mins

COc1ccc2cc(C(C)C(=O)N3CCSCC3)ccc2c1 (stereo unspecified)
IC50: 12 µM
